From patent US20150051296A1, “USE OF FATTY ACID TO REDUCE SKIN IRRITATION ASSOCIATED WITH RETINOID THERAPY” (Access Business Group Internaional LLC, priority 2013, published 2015)

Tests used:
[1] = system: retinoic acid response element (RARE) construct; assay: RARE reporter assay in stably transfected human kidney cells; type: cell-based; settings: oleic acid about 0, 25, 50, 100, 200 μM, FIG. 3
Description: Human kidney cells were stably transfected with a retinoic acid response element (RARE) construct. The transfected cells were exposed to increasing amounts of retinoic acid (from about 0.005 μM to about 10 μM) in the presence of increasing amounts of oleic acid (about 0 μM, about 25 μM, about 50 μM, about 100 μM, and about 200 μM), and the response was measured in relative light units (RLUs).

[2] = system: peroxisome proliferator activated receptor (PPAR); assay: PPAR luciferase reporter assay in stably transfected Chinese hamster ovary cells; type: cell-based; settings: about 0 to about 100 μg/mL, FIG. 5
Description: Chinese hamster ovary cells were stably transfected with peroxisome proliferator activated receptor (PPAR) construct and luciferase reporter vector. […] The response was measured in relative light units (RLUs).

## CCCCCCCC/C=C\CCCCCCCC(=O)O [oleic acid]
[1]
  effect of the fatty acid on retinoic acid activation of the retinoic acid receptor: did not affect retinoic acid activation of the retinoic acid receptor
[2]
  response (RLUs) of PPAR-transfected cells: responded in a dose dependent manner
